According to patent publication US20090270416A1, “N-OXIDES OF DIARYLUREA DERIVATIVES AND THEIR USE AS Chk1 INHIBITORS FOR THE TREATMENT OF CANCER” (SENTINEL ONCOLOGY LIMITED, priority 2006, published 2009):

How the values were obtained:
CHK1 (h) = target: T1, CHK1 (h) (Homo sapiens, UniProt O14757); experiment: Chk-1 kinase inhibiting activity (Upstate radiometric assay); format: biochemical
T1 construct: purchased Upstate Ltd (assay run at Upstate)
T1 sequence (O14757 1-476): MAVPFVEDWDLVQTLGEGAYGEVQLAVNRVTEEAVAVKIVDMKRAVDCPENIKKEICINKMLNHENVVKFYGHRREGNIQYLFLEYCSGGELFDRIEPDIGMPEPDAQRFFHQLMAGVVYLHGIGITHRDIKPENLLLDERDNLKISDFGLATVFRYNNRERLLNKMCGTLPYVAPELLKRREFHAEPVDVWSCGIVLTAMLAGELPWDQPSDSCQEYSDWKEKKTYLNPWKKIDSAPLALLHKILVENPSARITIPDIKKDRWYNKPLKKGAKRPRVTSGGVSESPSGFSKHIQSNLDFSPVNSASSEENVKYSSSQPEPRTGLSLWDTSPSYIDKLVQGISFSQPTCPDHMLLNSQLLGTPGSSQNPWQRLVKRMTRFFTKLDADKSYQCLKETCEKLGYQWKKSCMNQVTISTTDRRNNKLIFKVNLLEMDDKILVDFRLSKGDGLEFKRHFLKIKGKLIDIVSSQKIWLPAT
Method: The N-oxide compounds of the invention and their tertiary amine precursors were tested for activity against the Chk-1 kinase.
The Chk-1 assay was conducted at Upstate Ltd, Gemini Crescent, Dundee Technology Park, Dundee, DD2 1 SW, UK in accordance with the protocol set out below. In a final reaction volume of 25 μl, CHK1 (h) (5-10 mU) is incubated with 8 mM MOPS pH 7.0, 0.2 mM EDTA, 200 μM […], 10 mM MgAcetate and γ-33P-ATP] (specific activity approx. 500 cpm/pmol, concentration as required). The reaction is initiated by the addition of the MgATP mix. After incubation for 40 minutes at room temperature, the reaction is stopped by the addition of 5 μl of a 3% phosphoric acid solution. 10 μl of the reaction mixture is then spotted onto a P30 filtermat and washed three times for 5 minutes in 75 mM phosphoric acid and once in methanol prior to drying and scintillation counting.

hERG potassium channel = target: T2, hERG potassium channel (Homo sapiens, UniProt Q12809); experiment: Functional hERG assay (patch clamp, HEK-293 cells); format: cell-based; conditions: 5-point dose response, triplicate
T2 construct: expressed in transfected cells; host or cells: HEK-293
Method: The N-oxide compounds of the invention and their tertiary amine precursors were each tested for hERG inhibiting activity using the method of Zhou Z, Gong Q, Ye B, Fan Z, Makielski J C, Robertson G A, January C T. Biophys J. 1998 January; 74(1):230-41.
Test compounds were tested in triplicate in a 5-point dose response curve on HEK-293 cells stably expressing the hERG potassium channel. Potassium current was measured using the patch clamp technique on a Molecular Devices Patch Express 7000. hERG channels were activated by 2 second pulses to +20 mV from a holding potential of −80 mV, and peak tail currents were recorded upon repolarization to −50 mV. This voltage-clamp pulse protocol was performed continuously during the experiment (vehicle control, test compound, washout, and positive control additions). An interpulse interval of 15 seconds allowed recovery from any residual inactivation. Test compounds were incubated with cells between 3-8 minutes until the current reached a steady state level, defined by a Standard Deviation of 0.01. After the final test compound concentration was tested, test compound was washed out with continuous perfusion of extracellular solution for 3 minutes, followed by application of positive control (10 μM Cisparide).
Test compounds were diluted in 100% DMSO at 1000× the highest concentration to be tested, vortexed, and sonicated. Visual inspection determined that compounds were completely solubilized. Test compounds were then diluted into glass vials in 100% DMSO for all test concentrations at 1000× the final concentration to be tested and vortexed. Test compounds were then diluted 1:1000 into extracellular solution and vortexed to achieve final concentration for testing. Final DMSO concentration was 0.1% for all concentrations of test compounds, Vehicle (negative) control, and Cisapride (positive) control in extracellular solution. The compositions of the solutions used were as follows:
Intracellular Soln (mM): KCl 130, EDTA 5, MgCl2 5, HEPES10, Na-ATP 5, pH=7.2 Extracellular Soln (mM): NaCl 137, KCl 4, CaCl2 1.8, MgCl2 1, Dextrose 11, HEPES 10, pH=7.4

[1] = target: T3, human potassium channel hERG (Homo sapiens, UniProt Q12809); experiment: hERG binding activity ([3H] astemizole displacement, HEK-293 membranes); conditions: 1.5 nM [3H] astemizole; for IC50: 60 minutes at 25° C.
T3 construct: expressed in transfected cells; host or cells: HEK-293
Method: The abilities of the N-oxide compounds of the invention and their tertiary amine precursors were tested using the assay described below.
Human recombinant HEK-293 cells stably transfected with a plasmid encoding the human potassium channel hERG were used to prepare membranes in modified HEPES pH 7.4 buffer using standard techniques. A 10 μg aliquot of membrane was incubated with 1.5 nM [^3H] astemizole in the presence of varying concentrations of test compound for 60 minutes at 25° C. The membranes were then filtered and washed three times and the filters were counted to determine the [^3H] astemizole specifically bound. From the counts, the extent of binding of the test compound and, in some cases, the IC50 values of the test compounds, were determined.

T2 sequence (Q12809 whole entry): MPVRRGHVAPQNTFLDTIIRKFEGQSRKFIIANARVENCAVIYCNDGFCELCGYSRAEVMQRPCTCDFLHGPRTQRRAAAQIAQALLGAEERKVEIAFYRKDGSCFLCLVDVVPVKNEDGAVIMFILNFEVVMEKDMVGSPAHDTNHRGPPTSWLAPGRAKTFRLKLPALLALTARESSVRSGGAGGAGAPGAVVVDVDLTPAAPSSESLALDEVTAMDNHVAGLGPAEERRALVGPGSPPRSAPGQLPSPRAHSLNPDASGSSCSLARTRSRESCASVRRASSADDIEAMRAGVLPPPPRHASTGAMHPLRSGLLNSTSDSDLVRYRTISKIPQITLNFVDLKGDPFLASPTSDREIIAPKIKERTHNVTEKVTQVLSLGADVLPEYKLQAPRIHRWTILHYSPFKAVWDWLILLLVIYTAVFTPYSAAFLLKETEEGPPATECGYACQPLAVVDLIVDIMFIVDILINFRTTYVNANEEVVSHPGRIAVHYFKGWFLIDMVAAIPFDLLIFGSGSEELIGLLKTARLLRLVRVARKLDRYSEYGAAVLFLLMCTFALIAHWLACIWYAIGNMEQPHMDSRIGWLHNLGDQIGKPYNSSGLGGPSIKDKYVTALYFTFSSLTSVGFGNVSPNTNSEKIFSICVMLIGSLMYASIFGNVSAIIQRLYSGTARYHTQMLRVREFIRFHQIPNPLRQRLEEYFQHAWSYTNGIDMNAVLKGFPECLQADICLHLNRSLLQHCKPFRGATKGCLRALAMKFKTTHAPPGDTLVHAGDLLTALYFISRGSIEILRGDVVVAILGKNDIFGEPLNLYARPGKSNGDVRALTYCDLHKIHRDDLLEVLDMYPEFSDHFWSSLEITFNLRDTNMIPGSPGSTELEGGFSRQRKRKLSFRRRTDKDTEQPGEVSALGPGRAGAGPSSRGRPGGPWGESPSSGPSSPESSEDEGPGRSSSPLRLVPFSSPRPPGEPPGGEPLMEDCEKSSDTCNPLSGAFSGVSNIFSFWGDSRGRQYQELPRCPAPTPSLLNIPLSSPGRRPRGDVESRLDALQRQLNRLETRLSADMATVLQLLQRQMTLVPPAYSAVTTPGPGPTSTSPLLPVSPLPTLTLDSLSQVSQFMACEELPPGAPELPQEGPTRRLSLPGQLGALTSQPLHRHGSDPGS
T3 sequence (Q12809 whole entry): as above

Compound	IC50 (CHK1 (h))	IC50 (hERG potassium channel)	IC50 [1]	HERG Binding % @ 100 uM (extent of binding) ([1]; @ 100 uM test compound)
CN(C)CCCOc1ccc(Cl)cc1NC(=O)Nc1cnc(C#N)cn1 [Example 3B, 1-[5-Chloro-2-(3-dimethylamino-propoxy)-phenyl]-3-(5-cyano-pyrazin-2-yl)-urea]	< 10 nM	435 nM	5120 nM	
C[N+](C)([O-])CCCOc1ccc(Cl)cc1NC(=O)Nc1cnc(C#N)cn1 [Example 3C, 1-[5-Chloro-2-(3-dimethyloxyamino-propoxy)-phenyl]-3-(5-cyano-pyrazin-2-yl)-urea]	24 nM	16300 nM		46% @ 100 uM
CN(C)CCCOc1ccc(Cl)cc1NC(=O)Nc1ccc(C#N)cn1 [Example 4B, 1-[5-Chloro-2-(3-dimethylamino-propoxy)-phenyl]-3-(5-cyano-pyridin-2-yl)-urea]	279 nM	130 nM	445 nM	
C[N+](C)([O-])CCCOc1ccc(Cl)cc1NC(=O)Nc1ccc(C#N)cn1 [Example 4C, 1-[5-Chloro-2-(3-dimethyloxylamino-propoxy)-phenyl]-3-(5-cyano-pyridin-2-yl)-urea]	581 nM	2440 nM	7670 nM	
